Measurements reported in ChEMBL document CHEMBL5291721, “A preclinical secondary pharmacology resource illuminates target-adverse drug reaction associations of marketed drugs” (Nat Commun, 2023).

Experiments:
[1] = target: T1, Alpha-2C adrenergic receptor (Homo sapiens, UniProt P18825); type: functional
T1 sequence (P18825 whole entry): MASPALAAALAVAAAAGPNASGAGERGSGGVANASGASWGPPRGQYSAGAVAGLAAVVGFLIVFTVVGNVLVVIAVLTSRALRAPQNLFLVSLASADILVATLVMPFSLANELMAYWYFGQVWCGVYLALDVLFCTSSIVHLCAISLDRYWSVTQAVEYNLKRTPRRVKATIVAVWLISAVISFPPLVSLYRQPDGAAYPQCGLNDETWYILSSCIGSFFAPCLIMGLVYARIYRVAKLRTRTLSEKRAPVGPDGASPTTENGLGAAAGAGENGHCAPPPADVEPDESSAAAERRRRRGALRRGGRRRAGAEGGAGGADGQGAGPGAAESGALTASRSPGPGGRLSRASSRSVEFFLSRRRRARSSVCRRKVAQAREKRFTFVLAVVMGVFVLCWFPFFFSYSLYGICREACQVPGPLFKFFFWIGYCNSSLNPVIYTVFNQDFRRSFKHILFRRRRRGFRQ

Vasopressin V1a receptor = Vasopressin V1a receptor (Homo sapiens, UniProt P37288)
Vasopressin V2 receptor = Vasopressin V2 receptor (Homo sapiens, UniProt P30518)
[2] = target: Glutamate receptor ionotropic, NMDA 1 (Rattus norvegicus, UniProt P35439)
Progesterone receptor = target: T2, Progesterone receptor (Homo sapiens, UniProt P06401); type: functional
T2 sequence (P06401 whole entry): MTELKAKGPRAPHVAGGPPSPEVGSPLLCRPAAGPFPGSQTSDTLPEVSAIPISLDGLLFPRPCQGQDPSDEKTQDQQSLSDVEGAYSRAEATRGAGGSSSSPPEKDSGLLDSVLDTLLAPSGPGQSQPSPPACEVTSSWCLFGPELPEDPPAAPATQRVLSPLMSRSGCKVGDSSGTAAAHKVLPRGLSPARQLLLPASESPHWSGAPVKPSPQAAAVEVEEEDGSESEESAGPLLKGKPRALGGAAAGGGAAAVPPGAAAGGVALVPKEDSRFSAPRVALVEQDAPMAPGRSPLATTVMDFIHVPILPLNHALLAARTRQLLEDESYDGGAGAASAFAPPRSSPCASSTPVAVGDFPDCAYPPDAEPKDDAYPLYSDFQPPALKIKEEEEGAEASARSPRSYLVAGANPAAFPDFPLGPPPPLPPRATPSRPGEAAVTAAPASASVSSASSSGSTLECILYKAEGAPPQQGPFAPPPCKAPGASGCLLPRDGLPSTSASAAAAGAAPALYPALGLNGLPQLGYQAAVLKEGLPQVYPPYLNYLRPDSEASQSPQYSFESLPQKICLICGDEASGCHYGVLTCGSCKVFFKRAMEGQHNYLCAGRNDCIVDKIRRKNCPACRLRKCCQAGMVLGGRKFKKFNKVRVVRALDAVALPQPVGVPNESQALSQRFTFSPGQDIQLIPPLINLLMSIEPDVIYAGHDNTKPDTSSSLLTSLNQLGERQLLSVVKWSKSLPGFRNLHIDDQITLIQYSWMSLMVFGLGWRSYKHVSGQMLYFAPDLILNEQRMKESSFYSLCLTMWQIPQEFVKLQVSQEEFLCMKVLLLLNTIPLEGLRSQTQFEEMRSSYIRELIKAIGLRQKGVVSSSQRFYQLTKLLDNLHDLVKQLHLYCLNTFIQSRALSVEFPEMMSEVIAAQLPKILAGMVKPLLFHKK

[3] = target: T3, Equilibrative nucleoside transporter 1 (Homo sapiens, UniProt Q99808)
T3 sequence (Q99808 whole entry): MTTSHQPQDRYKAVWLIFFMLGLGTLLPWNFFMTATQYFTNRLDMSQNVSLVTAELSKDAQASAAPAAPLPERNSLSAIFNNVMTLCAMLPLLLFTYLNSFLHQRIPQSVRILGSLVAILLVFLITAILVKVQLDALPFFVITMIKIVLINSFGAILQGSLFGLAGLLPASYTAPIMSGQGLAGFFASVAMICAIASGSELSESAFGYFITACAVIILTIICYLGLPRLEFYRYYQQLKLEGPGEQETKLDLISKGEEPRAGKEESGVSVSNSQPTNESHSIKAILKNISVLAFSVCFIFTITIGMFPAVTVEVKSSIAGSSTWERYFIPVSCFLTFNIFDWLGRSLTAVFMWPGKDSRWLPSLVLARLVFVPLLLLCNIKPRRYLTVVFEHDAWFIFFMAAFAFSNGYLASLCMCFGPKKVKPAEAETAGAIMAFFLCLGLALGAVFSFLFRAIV

Mu-type opioid receptor = Mu-type opioid receptor (Homo sapiens, UniProt P35372)
[4] = target: T4, Alpha-1A adrenergic receptor (Homo sapiens, UniProt P35348); type: functional, cell-based
T4 sequence (P35348 whole entry): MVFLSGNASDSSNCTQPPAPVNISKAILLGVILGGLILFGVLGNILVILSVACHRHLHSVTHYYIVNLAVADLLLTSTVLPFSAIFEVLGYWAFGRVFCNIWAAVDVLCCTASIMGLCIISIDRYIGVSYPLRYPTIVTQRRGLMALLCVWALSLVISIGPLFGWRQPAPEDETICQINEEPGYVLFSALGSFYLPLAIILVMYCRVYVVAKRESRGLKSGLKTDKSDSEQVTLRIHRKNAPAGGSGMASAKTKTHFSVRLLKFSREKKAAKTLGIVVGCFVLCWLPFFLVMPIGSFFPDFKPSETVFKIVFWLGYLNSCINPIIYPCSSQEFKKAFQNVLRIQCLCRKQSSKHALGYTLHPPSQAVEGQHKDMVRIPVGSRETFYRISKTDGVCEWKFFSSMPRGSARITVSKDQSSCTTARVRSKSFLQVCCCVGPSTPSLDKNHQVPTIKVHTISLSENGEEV

Histamine H3 receptor = Histamine H3 receptor (Homo sapiens, UniProt Q9Y5N1)
[5] = target: Vascular endothelial growth factor receptor 2 (Homo sapiens, UniProt P35968); type: functional
[6] = target: T4, Alpha-1A adrenergic receptor; type: functional, cell-based; remark: listed apart in the source

Measured: AC50
Also: assay procedure not described here.

Sequence of Vasopressin V2 receptor (P30518 whole entry): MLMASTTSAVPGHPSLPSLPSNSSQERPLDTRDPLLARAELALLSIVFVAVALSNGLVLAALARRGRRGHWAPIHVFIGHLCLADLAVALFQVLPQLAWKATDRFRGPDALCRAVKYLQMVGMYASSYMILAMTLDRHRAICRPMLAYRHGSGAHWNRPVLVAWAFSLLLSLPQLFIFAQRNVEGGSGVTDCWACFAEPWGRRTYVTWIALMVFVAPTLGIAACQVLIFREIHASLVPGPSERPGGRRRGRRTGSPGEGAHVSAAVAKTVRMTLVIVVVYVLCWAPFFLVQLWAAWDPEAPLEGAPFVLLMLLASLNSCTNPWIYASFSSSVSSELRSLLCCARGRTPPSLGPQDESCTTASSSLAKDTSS
Sequence of Vasopressin V1a receptor (P37288 whole entry): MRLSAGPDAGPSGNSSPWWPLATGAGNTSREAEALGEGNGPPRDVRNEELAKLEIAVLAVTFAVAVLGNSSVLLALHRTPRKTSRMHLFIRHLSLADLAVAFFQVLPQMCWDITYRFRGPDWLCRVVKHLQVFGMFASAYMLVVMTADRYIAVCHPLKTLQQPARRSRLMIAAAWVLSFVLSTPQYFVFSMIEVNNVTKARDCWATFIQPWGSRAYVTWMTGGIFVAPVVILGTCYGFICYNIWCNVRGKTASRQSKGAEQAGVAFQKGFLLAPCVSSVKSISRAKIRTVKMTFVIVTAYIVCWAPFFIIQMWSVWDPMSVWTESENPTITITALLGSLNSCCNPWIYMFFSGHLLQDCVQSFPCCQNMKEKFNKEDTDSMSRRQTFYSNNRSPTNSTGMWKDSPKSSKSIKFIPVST
Sequence of Mu-type opioid receptor (P35372 whole entry): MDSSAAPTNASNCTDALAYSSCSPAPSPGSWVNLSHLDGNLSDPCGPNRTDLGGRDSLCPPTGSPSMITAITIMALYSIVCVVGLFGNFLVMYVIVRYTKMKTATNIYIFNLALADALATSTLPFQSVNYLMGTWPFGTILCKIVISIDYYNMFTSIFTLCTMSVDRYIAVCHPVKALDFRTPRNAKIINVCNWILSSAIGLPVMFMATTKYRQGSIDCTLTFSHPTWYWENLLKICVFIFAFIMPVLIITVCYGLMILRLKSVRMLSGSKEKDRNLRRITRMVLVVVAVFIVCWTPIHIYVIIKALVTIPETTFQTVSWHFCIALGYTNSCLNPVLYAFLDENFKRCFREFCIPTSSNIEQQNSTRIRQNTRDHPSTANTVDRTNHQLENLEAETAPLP
Sequence of Histamine H3 receptor (Q9Y5N1 whole entry): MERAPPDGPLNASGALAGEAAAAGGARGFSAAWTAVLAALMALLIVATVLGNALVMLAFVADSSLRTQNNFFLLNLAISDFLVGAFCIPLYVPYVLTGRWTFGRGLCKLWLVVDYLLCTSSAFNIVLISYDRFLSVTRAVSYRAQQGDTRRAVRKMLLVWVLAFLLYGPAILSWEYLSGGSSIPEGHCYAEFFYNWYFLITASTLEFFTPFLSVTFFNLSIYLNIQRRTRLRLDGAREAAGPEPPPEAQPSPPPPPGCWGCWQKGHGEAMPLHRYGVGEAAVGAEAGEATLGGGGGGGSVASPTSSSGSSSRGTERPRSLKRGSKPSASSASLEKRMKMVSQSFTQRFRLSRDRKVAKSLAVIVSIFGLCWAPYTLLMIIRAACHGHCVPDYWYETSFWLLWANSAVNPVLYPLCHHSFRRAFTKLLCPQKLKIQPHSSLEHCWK
Sequence of Vascular endothelial growth factor receptor 2 (P35968 whole entry): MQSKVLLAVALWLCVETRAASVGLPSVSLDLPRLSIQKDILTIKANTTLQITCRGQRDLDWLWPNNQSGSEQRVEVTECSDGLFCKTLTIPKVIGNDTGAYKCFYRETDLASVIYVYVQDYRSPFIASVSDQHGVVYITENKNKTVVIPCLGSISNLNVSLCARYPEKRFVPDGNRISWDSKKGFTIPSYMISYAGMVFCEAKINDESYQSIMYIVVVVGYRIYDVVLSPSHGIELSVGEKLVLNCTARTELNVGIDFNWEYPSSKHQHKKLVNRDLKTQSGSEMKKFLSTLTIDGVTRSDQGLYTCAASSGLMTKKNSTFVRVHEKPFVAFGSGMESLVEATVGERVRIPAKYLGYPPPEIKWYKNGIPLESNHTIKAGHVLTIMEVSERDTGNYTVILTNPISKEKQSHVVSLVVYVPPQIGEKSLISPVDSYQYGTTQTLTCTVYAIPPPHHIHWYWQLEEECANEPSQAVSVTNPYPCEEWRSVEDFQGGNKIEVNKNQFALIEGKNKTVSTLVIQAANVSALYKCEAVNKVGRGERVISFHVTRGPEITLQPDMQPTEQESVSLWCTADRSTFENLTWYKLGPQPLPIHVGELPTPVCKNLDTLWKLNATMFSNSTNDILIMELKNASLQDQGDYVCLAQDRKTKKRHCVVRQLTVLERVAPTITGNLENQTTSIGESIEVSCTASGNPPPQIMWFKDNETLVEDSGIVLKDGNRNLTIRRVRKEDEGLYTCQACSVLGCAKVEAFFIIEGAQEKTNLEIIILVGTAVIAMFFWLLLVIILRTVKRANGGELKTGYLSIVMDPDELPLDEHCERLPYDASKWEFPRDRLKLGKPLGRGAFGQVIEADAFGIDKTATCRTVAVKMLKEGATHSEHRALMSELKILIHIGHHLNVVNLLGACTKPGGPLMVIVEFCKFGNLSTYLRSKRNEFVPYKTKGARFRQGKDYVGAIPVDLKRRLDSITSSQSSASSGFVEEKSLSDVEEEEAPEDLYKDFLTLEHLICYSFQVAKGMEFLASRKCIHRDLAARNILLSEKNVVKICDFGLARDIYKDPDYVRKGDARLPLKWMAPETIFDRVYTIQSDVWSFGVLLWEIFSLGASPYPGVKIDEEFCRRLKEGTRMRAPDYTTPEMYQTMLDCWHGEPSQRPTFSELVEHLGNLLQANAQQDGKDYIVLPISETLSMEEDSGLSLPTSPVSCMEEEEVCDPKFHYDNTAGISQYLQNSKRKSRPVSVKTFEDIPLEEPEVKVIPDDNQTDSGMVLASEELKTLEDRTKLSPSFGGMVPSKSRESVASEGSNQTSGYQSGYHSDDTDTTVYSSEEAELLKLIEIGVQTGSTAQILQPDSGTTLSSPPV

CCc1oc2ccccc2c1C(=O)c1cc(Br)c(O)c(Br)c1 [BENZBROMARONE]
3.8 µM: Progesterone receptor
2.65 µM: [4]
26 µM: [1] | Mu-type opioid receptor
> 10 µM: [2]
> 30 µM: Vasopressin V1a receptor | Vasopressin V2 receptor | [3] | Histamine H3 receptor

CC(C)N(CCCCOCC(=O)NS(C)(=O)=O)c1cnc(-c2ccccc2)c(-c2ccccc2)n1 [SELEXIPAG]
> 30 µM: [1] | Vasopressin V1a receptor | Vasopressin V2 receptor | [2] | Progesterone receptor | [3] | Mu-type opioid receptor | Histamine H3 receptor
7.2 µM: [4]

COC(=O)[C@H](c1ccccc1Cl)N1CCc2sccc2C1 [CLOPIDOGREL]
13 µM: Mu-type opioid receptor
> 30 µM: [1] | Vasopressin V1a receptor | Vasopressin V2 receptor | [2] | Progesterone receptor | [3] | [4] | Histamine H3 receptor

CCCN(CCC)CCc1cccc2c1CC(=O)N2 [ROPINIROLE]
> 10 µM: [2]
> 30 µM: [1] | Vasopressin V1a receptor | Vasopressin V2 receptor | Progesterone receptor | [3] | [4]
9.67 µM: Mu-type opioid receptor
9.25 µM: Histamine H3 receptor

O=C1NC(=O)C(c2ccccc2)(c2ccccc2)N1 [PHENYTOIN]
> 30 µM: [1] | Vasopressin V1a receptor | Vasopressin V2 receptor | Progesterone receptor | [3] | Mu-type opioid receptor | [4] | Histamine H3 receptor
> 10 µM: [2]

CC1(C)S[C@@H]2[C@H](NC(=O)[C@H](N)c3ccc(O)cc3)C(=O)N2[C@H]1C(=O)O [AMOXICILLIN]
> 10 µM: Mu-type opioid receptor
> 30 µM: [1] | Vasopressin V1a receptor | Vasopressin V2 receptor | [2] | Progesterone receptor | [3] | [4] | Histamine H3 receptor

CNC[C@H](O)c1cccc(O)c1 [PHENYLEPHRINE]
> 30 µM: Vasopressin V2 receptor | [5] | [3]
> 10 µM: Vasopressin V1a receptor | [2] | Mu-type opioid receptor | Histamine H3 receptor

C#Cc1cccc(Nc2ncnc3cc(OCCOC)c(OCCOC)cc23)c1 [ERLOTINIB]
> 30 µM: [6] | [1] | Vasopressin V1a receptor | Progesterone receptor | [4] | Histamine H3 receptor
29 µM: [3] | Mu-type opioid receptor

CC(=O)/N=c1/sc(S(N)(=O)=O)nn1C [METHAZOLAMIDE]
> 30 µM: [6] | [5] | Mu-type opioid receptor
> 10 µM: [1] | Vasopressin V1a receptor | Vasopressin V2 receptor | [2] | Progesterone receptor | [3]
